From patent US20220054493A1, “INHIBITORS OF NGAL PROTEIN” (INSERM (INSTITUT NATIONAL DE LA SANTÉ ET DE LA RECHERCHE …, priority 2019, published 2022) come the findings set out here.

Assay [1] concerns aldosterone-induced profibrotic marker synthesis. Nature of the assay: Aldosterone-induced profibrotic marker synthesis in human cardiac fibroblasts. The class given is cell-based. The following applies: FIGS. 1 and 2 panel D. On the procedure: (§1) Cell Culture Human cardiac fibroblasts (primary culture) were obtained from Promocell and maintained in medium (Fibroblast Media 3). Cells were cultured according to the manufacturer's instructions and used between passages 5 and 7. Cells were stimulated with aldosterone (10^-8 M, Sigma) or recombinant hNGAL (500 ng/mL, R&D Systems) for 24 h for protein analysis. Mouse kidney fibroblasts (MKF), were isolated from Wild Type (WT) mice. Briefly, mice 7 to 8 weeks were sacrificed by cervical dislocation and kidneys were cleaned and rinsed in cold DPBS (Dulbecco's Phosphate-Buffered Saline). […]
(§2) Total protein aliquots of 20 μg were prepared from cardiac homogenates and electrophoresed on SDS polyacrylamide gels and transferred to Hybond-c Extra nitrocellulose membranes (Amersham Biosciences). […] After densitometric analyses, optical density values were expressed as arbitrary units. Results are expressed as an n-fold increase over the values of the control group in densitometric arbitrary units.
(§3) NGAL, IL6 and collagen type I concentrations were measured in cardiac tissue and cell supernatants, respectively, by ELISA according to the manufacturer's instructions (R&D Systems).
(§4) The inhibitory activity of the compounds was evaluated on the NGAL-induced IL6 secretion (NGAL 10 ng/ml) in human cardiac fibroblasts. […]

Assay [2] deals with T1, NGAL (Homo sapiens, UniProt P80188).
T1 construct: purchased R&D Systems
As to the kind of experiment: NGAL-induced profibrotic marker synthesis in human cardiac fibroblasts (western blot). It counts as cell-based. The following applies: FIGS. 1 and 2 panel C. The protocol: as §1, with “Saline). The renal cortex was minced and incubated in Dulbecco's modified eagle medium/Nutrient mixture F-12 (DMEM/F12, Sigma) containing 1 mg/mL collagenase A (Roche) during 25 minutes at 37° C.” for “Saline).”
as §2, §4
Background: A western blot detects proteins with antibodies after separation by electrophoresis.

Assay [3] deals with CKD Mouse Model. Nature of the assay: Renal profibrotic and inflammatory gene expression in the CKD mouse model. It counts as in vivo, mice. The following applies: kidney, two months administration. On the procedure:
Chronic kidney disease (CKD) was induced by subtotal nephrectomy (Nx) in eight-weeks-old FVB male mice (25-26 g). All surgeries were performed under ketamine/xylazine anaesthesia. Briefly, the left kidney was exposed, and the upper and lower poles were tied with a poly-glycolic acid suture line. The peritoneum and skin were then sutured, and the animals were returned to their individual cages. After one week of recovery, the second kidney was removed. Removal of the second kidney represents TO. Sham mice were subjected to the same surgical procedures but neither renal poles nor the right kidney were removed. Mice were monitored for any sign of distress, and those observed to be experiencing severe, unrelievable pain were euthanized. Renal failure was assessed by the measure of plasma creatinine and urea with an automatic analyser (Konelab 20i; Thermo Fisher Scientific, Vernon Hills, Ill.) at weeks 4 and 10 post-Nx.
Frozen tissues (kidneys, heart) were homogenized in TRIzol (Life Technologies, 15596018) using FastPrep beads (MP-Bio, 6913-100). cDNAs were generated using the Superscript II reverse transcriptase kit (Invitrogen, 18064022), and qPCR was performed as previously described. Briefly, transcript levels were analysed in a CFX396 apparatus (Biorad). The reactions were performed in duplicate for each sample using the IQ SYBR Green supermix Kit (Biorad, 170-8882). […]

In assay [4] the target is T1, NGAL. Nature of the assay: NGAL-induced Col 1 secretion in human cardiac fibroblasts (ELISA). The class given is cell-based. The following applies: FIGS. 1 and 2 panel B. The protocol:
as §1, with “Saline). The renal cortex was minced and incubated in Dulbecco's modified eagle medium/Nutrient mixture F-12 (DMEM/F12, Sigma) containing 1 mg/mL collagenase A (Roche) during 25 minutes at 37° C. The digestion was inactivated by adding culture medium (DMEM/F12+10% FBS) then the cell suspension was passed through a 100-μm cell strainer. After centrifugation, the pellet (containing MKF) was diluted with culture medium then plated in 75 cm^2 culture flask.” for “Saline).”
as §3, §4
Background: ELISA stands for enzyme-linked immunosorbent assay.

T1 sequence (P80188 21-198): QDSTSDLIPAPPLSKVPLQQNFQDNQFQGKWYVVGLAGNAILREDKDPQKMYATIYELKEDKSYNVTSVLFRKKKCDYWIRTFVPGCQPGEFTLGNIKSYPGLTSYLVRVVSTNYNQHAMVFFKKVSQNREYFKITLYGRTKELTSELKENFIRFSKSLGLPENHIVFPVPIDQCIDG

As for `CC(=O)c1cccc(S(=O)(=O)NCc2ccccc2-n2cccn2)c1` [GPZ614741], the “aldosterone-induced profibrotic marker (Col1, CT-1, or IL6) synthesis” value in assay [1] is reported as “inhibited”. In assay [2], the “NGAL-induced profibrotic marker (col1, col III, fibronectin, Gal3, OPN) synthesis” value is “inhibited”. The “profibrotic target genes (collagen1, fibronectin, alphaSMA)” value in assay [3] (FIG. 15A) is listed as “blunted the increase”. The “inflammatory markers (IL6, MCP1, TNFalpha)” value in assay [3] (FIG. 15B) is on record as “no effects”. The “Col 1 secretion (NGAL-induced)” value in assay [4] is “inhibited”.
